± gives the standard deviation of the averaged measurements.
Experiments:
Experiment in all cases: level (log10 ratio to DMSO vehicle control); higher = higher biomarker level / cell amount than vehicle control
Settings in all cases: in DMSO
[1] = compound: C=C(C)C(=O)OCC(F)(F)C(F)(F)C(F)(F)C(F)(F)C(F)(F)C(F)(F)C(F)(F)F
Experimental: (§1)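 BioMAP Diversity Plus panel of 12 human primary cell co-culture systems (3C, 4H, LPS, SAg, BT, BF4T, BE3C, CASM3C, HDF3CGF, KF3CT, MyoF, Mphg). Compounds were added 1 h before stimulation and left for 24 h (MyoF 48 h; BT 72 h for soluble read-outs or 6 d for IgG). Biomarkers were read by ELISA, cytotoxicity by SRB, PBMC viability and proliferation by Alamar Blue. Each well value was divided by the mean of 8 DMSO control wells on the same plate and log10 transformed; duplicate blinded samples were tested at 4 concentrations.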

[2] = compound: CC(C)(C)C(=O)CC(=O)C(F)(F)C(F)(F)C(F)(F)F [(Heptafluorobutanoyl)pivaloylmethane]
Experimental: as §1

[3] = compound: O=C(O)C(F)(F)C(F)(F)C(F)(F)C(F)(F)C(F)(F)C(F)(F)C(F)(F)C(F)(F)C(F)(F)C(F)(F)C(F)(F)C(F)(F)C(F)(F)F [Perfluorotetradecanoic acid]
Experimental: as §1

[4] = compound: O=C(O)C(F)(F)C(F)(F)C(F)(F)C(F)(F)C(F)(F)C(F)(F)C(F)(F)C(F)(F)Cl [9-Chloro-perfluorononanoic acid]
Experimental: as §1

[5] = compound: O=C(O)C(F)(F)OC(F)(F)C(F)(F)OC(F)(F)C(F)(F)C(F)(F)C(F)(F)F [Perfluoro-3,6-dioxadecanoic acid]
Experimental: as §1

[6] = compound: O=C(O)CCC(F)(F)C(F)(F)C(F)(F)C(F)(F)C(F)(F)F [2H,2H,3H,3H-Perfluorooctanoic acid]
Experimental: as §1

[7] = compound: O=S(=O)(O)C(F)(F)C(F)(F)C(F)(F)C(F)(F)C(F)(F)C(F)(F)C(F)(F)C(F)(F)F [Perfluorooctanesulfonic acid]
Experimental: as §1

Test System | level (log10) ([1]; 6700 nM) | level (log10) ([1]; 20000 nM) | level (log10) ([2]; 6700 nM) | level (log10) ([2]; 20000 nM) | level (log10) ([2]; 60000 nM) | level (log10) ([3]; 6700 nM) | level (log10) ([3]; 20000 nM) | level (log10) ([4]; 6700 nM) | level (log10) ([4]; 20000 nM) | level (log10) ([5]; 6700 nM) | level (log10) ([5]; 20000 nM) | level (log10) ([5]; 60000 nM) | level (log10) ([6]; 6700 nM) | level (log10) ([6]; 20000 nM) | level (log10) ([6]; 60000 nM) | level (log10) ([7]; 6700 nM) | level (log10) ([7]; 20000 nM) | level (log10) ([7]; 60000 nM)
3C:CXCL9/MIG | -0.001 ± 0.017 | 0.015 ± 0.0099 | -0.007 ± 0.016 | -0.0045 ± 0.013 | 0.004 ± 0.0071 | -0.0045 ± 0.0035 | 0.0015 ± 0.0021 | -0.005 ± 0.0042 | 0.0065 ± 0.0078 | -0.015 ± 0.02 | -0.0185 ± 0.019 | -0.002 ± 0.017 | -0.006 ± 0.013 | -0.007 ± 0.027 | -0.0075 ± 0.021 | 0.0035 ± 0.00071 | -0.002 ± 0.0057 | 0.009 ± 0.0057
SAg:Proliferation | 0.0015 ± 0.0064 | 0.0185 ± 0.0092 | -0.0415 ± 0.011 | -0.033 ± 0.0057 | -0.0835 ± 0.1 | -0.038 ± 0.045 | -0.014 ± 0.025 | -0.036 ± 0.033 | 0.02 ± 0.02 | -0.007 ± 0.03 | 0.023 ± 0.033 | 0.0095 ± 0.043 | -0.011 ± 0.017 | -0.0475 ± 0.067 | -0.115 | 0.001 ± 0.031 | 0.0185 ± 0.011 | 0.0675 ± 0.00071
LPS:CXCL8/IL-8 | -0.0045 ± 0.0092 | 0.033 ± 0.011 | -0.019 ± 0.0099 | 0.015 ± 0.0057 | 0.0265 ± 0.013 | 0.0125 ± 0.077 | 0.0255 ± 0.16 | 0.019 ± 0.062 | 0.061 ± 0.048 | -0.0175 ± 0.0092 | -0.0145 ± 0.013 | 0.018 ± 0.02 | 0.054 ± 0.034 | 0.0715 ± 0.09 | 0.121 ± 0.11 | -0.0005 ± 0.011 | 0.015 ± 0.02 | 0.0235 ± 0.046
BT:B cell Proliferation | -0.005 ± 0.021 | 0.0115 ± 0.0078 | 0.007 ± 0.0099 | 0.007 ± 0.028 | 0.033 ± 0.0057 | -0.0055 ± 0.023 | -0.0035 ± 0.028 | 0.04 ± 0.038 | 0.037 ± 0.017 | 0.012 ± 0.0071 | 0.0415 ± 0.019 | 0.055 ± 0.011 | 0.0515 ± 0.028 | 0.078 ± 0.059 | 0.05 ± 0.05 | 0.0245 ± 0.0092 | 0.0375 ± 0.0092 | 0.0635 ± 0.035
SAg:PBMC Cytotoxicity | 0.0115 ± 0.005 | 0.0265 ± 0.046 | -0.0265 ± 0.013 | -0.007 ± 0.017 | -0.124 ± 0.15 | -0.051 ± 0.014 | -0.016 ± 0.024 | 0.032 ± 0.028 | 0.0255 ± 0.032 | 0.03 ± 0.0085 | 0.0395 ± 0.018 | 0.0705 ± 0.00071 | 0.0125 ± 0.0078 | 0.0255 ± 0.039 | 0.0115 ± 0.039 | 0.0135 ± 0.0092 | 0.021 ± 0.013 | 0.0185 ± 0.013
BF4T:MMP-3 | 0.002 ± 0.023 | -0.007 ± 0.018 | -0.031 ± 0.02 | -0.0345 ± 0.029 | -0.0285 ± 0.057 | 0.027 ± 0.04 | 0.0475 ± 0.066 | 0.0535 ± 0.023 | 0.118 ± 0.035 | 0.008 ± 0.0057 | 0.11 ± 0.015 | 0.161 ± 0.037 | -0.0015 ± 0.019 | 0.0025 ± 0.0035 | 0.0235 ± 0.066 | 0.012 ± 0.035 | 0.0625 ± 0.012 | 0.059 ± 0.089
BE3C:CD54/ICAM-1 | 0.007 ± 0.0014 | 0.006 ± 0.0085 | -0.0055 ± 0.005 | -0.008 ± 0.0014 | -0.0185 ± 0.011 | -0.003 ± 0.025 | 0.015 ± 0.062 | 0.0145 ± 0.018 | -0.033 ± 0.014 | -0.0105 ± 0.0021 | -0.024 ± 0.013 | 0.008 ± 0.0057 | -0.0065 ± 0.0078 | -0.0085 ± 0.005 | -0.0155 ± 0.011 | 0.016 ± 0.011 | 0.0665 ± 0.00071 | -0.263 ± 0.21
SAg:CD38 | -0.0195 ± 0.00071 | 0.011 ± 0.0071 | 0.0075 ± 0.097 | 0.017 ± 0.065 | -0.0125 ± 0.00071 | -0.0205 ± 0.03 | -0.018 ± 0.016 | -0.02 ± 0.021 | -0.0315 ± 0.028 | -0.0115 ± 0.0021 | -0.021 ± 0.0057 | -0.061 ± 0.069 | -0.0215 ± 0.037 | -0.024 ± 0.041 | -0.0595 ± 0.03 | -0.01 ± 0.021 | -0.0075 ± 0.00071 | -0.037 ± 0.018
LPS:CD62E/E-Selectin | -0.021 ± 0.018 | 0.0025 ± 0.0035 | -0.0025 ± 0.005 | -0.0145 ± 0.021 | 0.004 ± 0.0042 | -0.0035 ± 0.011 | 0.01 ± 0.04 | -0.0095 ± 0.033 | 0.034 ± 0.0057 | 0.008 ± 0.034 | 0.006 ± 0.04 | 0.024 ± 0.04 | 0.0405 ± 0.029 | 0.022 ± 0.028 | 0.027 ± 0.021 | -0.002 ± 0.0014 | -0.0055 ± 0.036 | 0.019 ± 0.0028
SAg:CD69 | -0.01 ± 0.05 | -0.001 ± 0.045 | -0.027 ± 0.023 | -0.023 ± 0.02 | -0.007 ± 0.014 | -0.0155 ± 0.016 | -0.018 ± 0.028 | -0.0405 ± 0.043 | -0.035 ± 0.028 | 0 ± 0.013 | -0.0405 ± 0.00071 | -0.105 ± 0.067 | -0.0265 ± 0.043 | -0.025 ± 0.038 | -0.0145 ± 0.028 | -0.013 ± 0.0014 | -0.0035 ± 0.018 | 0.0035 ± 0.016
LPS:sPGE2 | -0.0035 ± 0.05 | -0.031 ± 0.034 | 0.058 ± 0.013 | 0.04 ± 0.018 | 0.181 ± 0.023 | 0.0005 ± 0.011 | 0.0255 ± 0.019 | 0.0175 ± 0.0092 | -0.0895 ± 0.0078 | -0.105 ± 0.011 | -0.161 ± 0.0078 | -0.248 ± 0.03 | -0.0095 ± 0.033 | -0.08 ± 0.0014 | -0.111 ± 0.049 | 0.01 ± 0.035 | -0.0315 ± 0.0092 | -0.075 ± 0.013
BE3C:CXCL11/I-TAC | -0.0085 ± 0.016 | -0.0095 ± 0.0021 | -0.0005 ± 0.04 | 0.01 ± 0.037 | 0.024 ± 0.028 | -0.073 ± 0.052 | -0.0135 ± 0.071 | 0.0515 ± 0.005 | -0.161 ± 0.032 | 0.0945 ± 0.00071 | 0.124 ± 0.011 | 0.0095 ± 0.022 | 0.0305 ± 0.016 | 0.0535 ± 0.012 | 0.036 ± 0.014 | -0.0085 ± 0.00071 | -0.0735 ± 0.028 | -0.555 ± 0.15
4H:CCL2/MCP-1 | -0.0415 ± 0.0092 | -0.005 ± 0.061 | -0.0085 ± 0.012 | -0.006 ± 0.018 | -0.0195 ± 0.059 | -0.031 ± 0.0057 | 0.0115 ± 0.019 | -0.001 ± 0.014 | -0.0245 ± 0.0035 | -0.0225 ± 0.0092 | -0.0425 ± 0.011 | -0.093 ± 0.14 | 0.009 ± 0.0042 | -0.008 ± 0.0057 | 0.0025 ± 0.0064 | -0.001 ± 0.0085 | -0.0275 ± 0.021 | -0.0255 ± 0.005
LPS:SRB | -0.0025 ± 0.0078 | -0.0045 ± 0.005 | -0.006 | -0.0095 ± 0.0021 | -0.028 ± 0.0099 | -0.011 ± 0.0042 | -0.0055 ± 0.018 | 0.0015 ± 0.012 | -0.0035 ± 0.013 | -0.01 ± 0.014 | -0.0025 ± 0.005 | -0.105 ± 0.069 | -0.01 ± 0.0014 | -0.0115 ± 0.0035 | -0.0035 ± 0.0064 | -0.003 ± 0.0085 | -0.003 ± 0.0028 | 0

From the supplement of paper PMC10331698
